What was measured:
[1] = test system: larvae of case making clothes moths; assay: killing of case making clothes moth larvae in plugged bottle at 25° C. for 4 hours (Tables 3 and 4); type: in vivo; settings: 10 larvae, chemicals in the solid state, 2 g, 4 hours (Table 4)
Protocol: Granular trioxane containing 1 ppm of formic acid and 2 ppm of formaldehyde was dissolved in various organic solvents at a predetermined concentration to prepare organic liquid insect-proofing agents.
Square absorbent cotton piece having a side of 3 cm, which was impregnated with 2 g of the organic liquid insect-proofing agent, was placed in the bottom portion of a glass bottle having a volume of 500 ml, and an insect cage of a metal net having a diameter of 3 cm, which contained 10 larvae of case making clothes moths having a body length of about 6 mm and a square wool fabric having a side of 3 cm, was secured the absorbent cotton 5 cm apart therefrom. Then, the bottle was plugged and allowed to stand in a thermostat chamber maintained at 25° C. for 4 hours. Then, the cage was taken up and the state of the larvae of case making clothes was checked.
Each of p-dichlorobenzene, naphthalene and dl-camphor was used in the form of a granular reagent. […] One pack of "Mothproofing Agent for Drawers" supplied by Dainippon Jochugiku (corresponding to 12.5 liters) was used as the pyrethroid type chemicals. No chemical was used in Comparative Example 13.

[2] = cited from earlier work
[3] = test system: larvae of case making clothes moths; assay: test for controlling harmful insects to clothes, case making clothes moth larvae (Table 1); type: in vivo; parameters: key to Eating damage degree after 24 hours: A: no eating damage; B: eating damage was only a trace; C: intermediate between ranks B and D; D: large eating damage (damage in absence of insect-proofing agent); settings: for Number of dead insects after 6 hours / Number of dead insects after 24 hours: 10 case making clothes moth larvae, 500 ml bottle, 24° to 26° C.; for Eating damage degree after 24 hours: wool fabric, case making clothes moth larvae
Protocol: (§1) The solid insect-proofing agent was subjected to the test for controlling harmful insects to clothes.
(§2) A glass bottle having a volume of 500 ml was charged with 10 harmful insects and one square wool fabric piece having a side of 3 cm, and one pellet of the solid insect-proofing agent was placed apart from the wool fabric piece. The bottle was tightly plugged and was allowed to stand in the dark place at a temperature of 24° to 26° C.
(§3) For comparison, commercially available moth-proofing agents, p-dichlorobenzene and naphthalene (each was in the form of a flat disk-shaped pellet having a diameter of 21 mm), were similarly tested, and the test was carried out without using any moth-proofing agent.
(§4) The results of the tests conducted on larvae of case making clothes moths having a body length of about 6 mm as the harmful insects (Example 6 and Comparative Examples 1 to 3) are shown in Table 1, and the results of the test conducted on larvae of varied carpet beetles having a body length of about 4 mm as harmful insects (Example 7 and Comparative Examples 4 to 6) are shown in Table 2.

[4] = test system: larvae of varied carpet beetles; assay: test for controlling harmful insects to clothes, varied carpet beetle larvae (Table 2); type: in vivo; parameters: key to Eating damage degree after 24 hours: A: no eating damage; B: eating damage was only a trace; C: intermediate between ranks B and D; D: large eating damage (damage in absence of insect-proofing agent); settings: for Number of dead insects after 6 hours / Number of dead insects after 24 hours: 10 varied carpet beetle larvae, 500 ml bottle, 24° to 26° C.; for Eating damage degree after 24 hours: wool fabric, varied carpet beetle larvae
Protocol: as §1, §2, §3, §4

[5] = it is said; cited from earlier work
insects = assay: insecticidal force and repellency, general statement; type: in vivo
rats [6] = settings: oral administration to rats; cited from earlier work
mice = settings: cited from earlier work
rats [7] = settings: cited from earlier work
[8] = test system: small fruit flies (drosophila); settings: cited from earlier work
salmonellae = settings: cited from earlier work
[9] = cited from earlier work; remark: listed apart in the source

Structure (SMILES): CC1(C)[C@@H]2CC[C@@]1(C)C(=O)C2 (relative stereo) [dl-camphor]
- Number of Killed Insects [1]: 0

Structure (SMILES): CC12CCC(CC1=O)C2(C)C (stereo not drawn) [camphor]
- solubility in water [2]: hardly soluble or is insoluble in water

Structure (SMILES): c1ccc2ccccc2c1 [naphthalene]
- Number of dead insects after 6 hours [3]: 0
- Number of dead insects after 24 hours [3]: 2
- Eating damage degree after 24 hours [3]: B
- Number of dead insects after 6 hours [4]: 0
- Number of dead insects after 24 hours [4]: 0
- Eating damage degree after 24 hours [4]: C
- Number of Killed Insects [1]: 0
- solubility in water [2]: hardly soluble or is insoluble in water

Structure (SMILES): Clc1ccc(Cl)cc1 [p-dichlorobenzene]
- Number of dead insects after 6 hours [3]: 5
- Number of dead insects after 24 hours [3]: 10
- Eating damage degree after 24 hours [3]: A
- Number of dead insects after 6 hours [4]: 3
- Number of dead insects after 24 hours [4]: 9
- Eating damage degree after 24 hours [4]: A
- Number of Killed Insects [1]: 2
- health effects [5]: causes liver troubles, lung granulomata, cataract and dermatitis
- solubility in water [2]: hardly soluble or is insoluble in water

Structure (SMILES): C1OCOCO1 [trioxane, 1,3,5-trioxane]
- insecticidal force (insects; compared with p-dichlorobenzene): weaker than that of p-dichlorobenzene
- repellency to insects (insects; in vivo): sufficient repellency to insects
- LD50 (rats [6]): 8,500 mg/kg
- mutagenicity (mice): no mutagenicity
- mutagenicity (rats [7]): no mutagenicity
- mutagenicity [8]: no mutagenicity
- mutagenicity (salmonellae): no mutagenicity
- solubility in other various organic solvents ([2]; organic solvents other than saturated hydrocarbons): highly soluble
- solubility in saturated hydrocarbons ([2]; saturated hydrocarbons): poor
- solubility in water [2]: soluble in water
- stability in highly acidic aqueous solution ([9]; highly acidic aqueous solution): hydrolyzed
- stability in neutral or alkaline aqueous solution ([9]; neutral or alkaline aqueous solution): stable
- hydrolyzability ([9]; normal state): very low
- stability in air ([9]; normal temperature in air): very stable
